Legend:
Format in all cases: in vivo
[1] = tested on: oat, wild (wild oat, Avena fatua); assay: Test A preemergence soil spray, visual injury rating 0-100; conditions: 10 days
Outline: (§1)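 Visual injury ratings (0, no effect; 100, complete control) were assigned relative to untreated plants 10 days after treatment. Test chemicals, formulated with a surfactant-containing non-phytotoxic solvent, were applied in loam-sand soil either as a directed soil spray before emergence or to emerged plants, and plants were kept in a greenhouse.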

[2] = tested on: corn (Zea mays); assay: as above; conditions: 10 days
Outline: as §1

[3] = tested on: kochia (Bassia scoparia); assay: as above; conditions: 62 g ai/ha, 10 days, 0 = no effect, 100 = complete control
Outline: as §1

[4] = tested on: ragweed (common ragweed, Ambrosia artemisiifolia); assay: as above; conditions: 10 days
Outline: as §1

[5] = tested on: blackgrass (Alopecurus myosuroides); assay: as above; conditions: 10 days
Outline: as §1

[6] = tested on: wheat (Triticum aestivum); assay: as above; conditions: 10 days
Outline: as §1

[7] = tested on: soybean (Glycine max); assay: as above; conditions: 10 days
Outline: as §1

[8] = tested on: barnyardgrass (Echinochloa crus-galli); assay: as above; conditions: 10 days
Outline: as §1

[9] = tested on: green foxtail (Setaria viridis); assay: as above; conditions: 10 days
Outline: as §1

[10] = tested on: ryegrass, Italian (italian ryegrass, Lolium multiflorum); assay: as above; conditions: 10 days
Outline: as §1

[11] = tested on: palmer (palmer amaranth, palmer pigweed, Amaranthus palmeri); assay: as above; conditions: 10 days
Outline: as §1

[12] = tested on: sedge, umbrella (small-flower umbrella sedge, Cyperus difformis); assay: Test B flooded paddy test, visual plant response rating 0-100; conditions: 250 g ai/ha, Flood, applied to paddy water, evaluated after 13 days
Outline: (§2)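 Visual evaluation after 13 days. Water-applied treatment, 3 cm flood depth held constant, plants at 2-leaf stage at treatment.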

[13] = tested on: barnyardgrass (Echinochloa crusgalli); assay: as above; conditions: 250 g ai/ha, Flood, applied to paddy water, evaluated after 13 days
Outline: as §2

[14] = tested on: rice (Oryza sativa); assay: as above; conditions: 250 g ai/ha, Flood, applied to paddy water, evaluated after 13 days
Outline: as §2

[15] = tested on: ducksalad (Heteranthera limosa); assay: as above; conditions: 250 g ai/ha, Flood, applied to paddy water, evaluated after 13 days
Outline: as §2

[16] = tested on: oat, wild (wild oat, Avena fatua); assay: Test A postemergence application, visual injury rating 0-100
Outline: as §1

[17] = tested on: galium (catchweed bedstraw, Galium aparine); assay: as above
Outline: as §1

[18] = tested on: corn (Zea mays); assay: as above
Outline: as §1

[19] = tested on: kochia (Bassia scoparia); assay: as above
Outline: as §1

[20] = tested on: ragweed (common ragweed, Ambrosia artemisiifolia); assay: as above
Outline: as §1

[21] = tested on: blackgrass (Alopecurus myosuroides); assay: as above
Outline: as §1

[22] = tested on: wheat (Triticum aestivum); assay: as above
Outline: as §1

[23] = tested on: soybean (Glycine max); assay: as above
Outline: as §1

[24] = tested on: horseweed (Erigeron canadensis); assay: as above
Outline: as §1

[25] = tested on: barnyardgrass (Echinochloa crus-galli); assay: as above
Outline: as §1

[26] = tested on: green foxtail (Setaria viridis); assay: as above
Outline: as §1

[27] = tested on: ryegrass, Italian (italian ryegrass, Lolium multiflorum); assay: as above
Outline: as §1

[28] = tested on: palmer (palmer amaranth, palmer pigweed, Amaranthus palmeri); assay: as above
Outline: as §1

[29] = 62 g ai/ha, 0 = no effect, 100 = complete control
[30] = 62 g ai/ha, postemergence, 10 days, 0 = no effect, 100 = complete control
[31] = Postemergence, 16 g ai/ha, greenhouse 10 days, 0 no effect, 100 complete control

Question: `COC(=O)C1C=CC(NC(=O)C2(C)CN(c3cc(C)cc(C)c3)C(=O)O2)C1` (stereo not drawn) [Compound 115] was tested. Which “Oat, Wild plant response rating” value ([1]; 16 g ai/ha, 0 to 100 scale) did it give?
Answer: 0

Question: What about the “Oat, Wild plant response rating (0-100)” value [1, 29] of the same compound?
Answer: 40

Question: What about the “Corn plant response rating” value ([2]; 16 g ai/ha, 0 to 100 scale) of the same compound?
Answer: 0

Question: What about the “Corn plant response rating (0-100)” value [2, 29] of the same compound?
Answer: 20

Question: And the “Kochia plant response rating (0-100)” value [3]?
Answer: 100

Question: And the “Ragweed plant response rating” value ([4]; 16 g ai/ha, 0 to 100 scale)?
Answer: 0

Question: What about the “Ragweed plant response rating (0-100)” value [4, 29] of the same compound?
Answer: 0

Question: What about the “Blackgrass plant response rating” value ([5]; 16 g ai/ha, 0 to 100 scale) of the same compound?
Answer: 20

Question: What about the “Blackgrass plant response rating (0-100)” value [5, 29] of the same compound?
Answer: 60

Question: And the “Wheat plant response rating” value ([6]; 16 g ai/ha, 0 to 100 scale)?
Answer: 0

Question: What about the “Wheat plant response rating (0-100)” value [6, 29] of the same compound?
Answer: 30

Question: What about the “Soybean plant response rating” value ([7]; 16 g ai/ha, 0 to 100 scale) of the same compound?
Answer: 0

Question: What about the “Soybean plant response rating (0-100)” value [7, 29] of the same compound?
Answer: 0

Question: What about the “Barnyardgrass plant response rating” value ([8]; 16 g ai/ha, 0 to 100 scale) of the same compound?
Answer: 30

Question: What about the “Barnyardgrass plant response rating (0-100)” value [8, 29] of the same compound?
Answer: 100

Question: And the “Foxtail, Green plant response rating” value ([9]; 16 g ai/ha, 0 to 100 scale)?
Answer: 0

Question: What about the “Foxtail, Green plant response rating (0-100)” value [9, 29] of the same compound?
Answer: 30

Question: What about the “Ryegrass, Italian plant response rating” value ([10]; 16 g ai/ha, 0 to 100 scale) of the same compound?
Answer: 10

Question: And the “Ryegrass, Italian plant response rating (0-100)” value [10, 29]?
Answer: 30

Question: And the “Pigweed, Palmer plant response rating” value ([11]; 16 g ai/ha, 0 to 100 scale)?
Answer: 20

Question: What about the “Pigweed, Palmer plant response rating (0-100)” value [11, 29] of the same compound?
Answer: 90

Question: And the “Plant response rating, Sedge, Umbrella (0 to 100 scale, 0 is no effect and 100 is complete control)” value [12]?
Answer: 0

Question: And the “Plant response rating, Barnyardgrass (0 to 100 scale, 0 is no effect and 100 is complete control)” value [13]?
Answer: 65

Question: What about the “Plant response rating, Rice (0 to 100 scale, 0 is no effect and 100 is complete control)” value [14] of the same compound?
Answer: 25

Question: And the “Plant response rating, Ducksalad (0 to 100 scale, 0 is no effect and 100 is complete control)” value [15]?
Answer: 80

Question: What about the “Oat, Wild plant response rating (0-100)” value [16, 30] of the same compound?
Answer: 90

Question: What about the “Oat, Wild plant response rating (0 to 100 scale)” value [16, 31] of the same compound?
Answer: 80

Question: What about the “Galium plant response rating (0-100)” value [17, 30] of the same compound?
Answer: 70

Question: And the “Galium plant response rating (0 to 100 scale)” value [17, 31]?
Answer: 60

Question: What about the “Corn plant response rating (0-100)” value [18, 30] of the same compound?
Answer: 100

Question: What about the “Corn plant response rating (0 to 100 scale)” value [18, 31] of the same compound?
Answer: 60

Question: What about the “Kochia plant response rating (0-100)” value [19, 30] of the same compound?
Answer: 70

Question: And the “Kochia plant response rating (0 to 100 scale)” value [19, 31]?
Answer: 0

Question: And the “Ragweed plant response rating (0-100)” value [20, 30]?
Answer: 30

Question: What about the “Ragweed plant response rating (0 to 100 scale)” value [20, 31] of the same compound?
Answer: 0

Question: What about the “Blackgrass plant response rating (0-100)” value [21, 30] of the same compound?
Answer: 90

Question: What about the “Blackgrass plant response rating (0 to 100 scale)” value [21, 31] of the same compound?
Answer: 70

Question: What about the “Wheat plant response rating (0-100)” value [22, 30] of the same compound?
Answer: 80

Question: And the “Wheat plant response rating (0 to 100 scale)” value [22, 31]?
Answer: 30

Question: And the “Soybean plant response rating (0-100)” value [23, 30]?
Answer: 60

Question: And the “Soybean plant response rating (0 to 100 scale)” value [23, 31]?
Answer: 40

Question: What about the “Horseweed plant response rating (0-100)” value [24, 30] of the same compound?
Answer: 0

Question: What about the “Horseweed plant response rating (0 to 100 scale)” value [24, 31] of the same compound?
Answer: 10

Question: What about the “Barnyardgrass plant response rating (0-100)” value [25, 30] of the same compound?
Answer: 100

Question: What about the “Barnyardgrass plant response rating (0 to 100 scale)” value [25, 31] of the same compound?
Answer: 70

Question: And the “Foxtail, Green plant response rating (0-100)” value [26, 30]?
Answer: 30

Question: And the “Foxtail, Green plant response rating (0 to 100 scale)” value [26, 31]?
Answer: 10

Question: What about the “Ryegrass, Italian plant response rating (0-100)” value [27, 30] of the same compound?
Answer: 70

Question: And the “Ryegrass, Italian plant response rating (0 to 100 scale)” value [27, 31]?
Answer: 40

Question: And the “Pigweed, Palmer plant response rating (0-100)” value [28, 30]?
Answer: 10

Question: What about the “Pigweed, Palmer plant response rating (0 to 100 scale)” value [28, 31] of the same compound?
Answer: 10
